Residue numbers refer to the chain shown, from its start.
How the values were obtained:
hSGLT5 Asn96Ile = molecular target: T1, hSGLT5 Asn96Ile (Homo sapiens, UniProt A0PJK1, N96I); assay: 1,5-AG uptake in HEK293T cells overexpressing SGLT5 variant Asn96Ile; format: cell-based
T1 construct: pUB83-hSGLT5-iso2 as well as the various SGLT5 mutants obtained were used to transduce HEK293T cells; expressed in transfected cells; host or cells: HEK293T, lentiviral transduction (pUB83)
T1 sequence (A0PJK1 1-596 N96I): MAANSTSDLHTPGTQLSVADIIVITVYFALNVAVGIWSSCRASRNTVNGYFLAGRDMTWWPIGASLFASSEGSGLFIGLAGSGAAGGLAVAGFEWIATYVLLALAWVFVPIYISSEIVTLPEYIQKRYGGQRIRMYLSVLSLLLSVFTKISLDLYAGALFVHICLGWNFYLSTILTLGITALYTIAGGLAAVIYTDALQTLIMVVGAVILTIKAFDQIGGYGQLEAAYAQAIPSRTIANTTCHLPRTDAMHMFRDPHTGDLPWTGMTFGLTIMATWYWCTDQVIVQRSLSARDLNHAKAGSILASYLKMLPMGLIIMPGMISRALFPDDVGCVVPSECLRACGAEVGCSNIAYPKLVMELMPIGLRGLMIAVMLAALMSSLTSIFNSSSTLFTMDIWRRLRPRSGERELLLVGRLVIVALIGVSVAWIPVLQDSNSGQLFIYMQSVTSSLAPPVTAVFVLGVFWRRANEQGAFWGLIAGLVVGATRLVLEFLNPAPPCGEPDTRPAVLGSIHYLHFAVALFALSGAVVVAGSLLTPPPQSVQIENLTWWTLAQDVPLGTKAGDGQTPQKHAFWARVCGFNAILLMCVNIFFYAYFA
Description: (§1) For a typical transporter experiment we proceeded as follows. […] To minimize cell loss during the various washing steps in the radioactive uptake experiments, the wells where the cells were seeded were previously coated with poly- D-lysine, which improved their adhesion to the plastic surface of the wells. For this, each well of the 24-well plates was treated with 200 µl of a 0.01% poly-L-lysine solution for 10 min, washed 3 times with 1 ml of sterilized water and left to dry for 2 h. Only then could the 24-well plates be seeded with the appropriate cell lines and cultured overnight at 37 °C in 5% CO2.
(§2) On day two, the radioactive uptake assay could be performed. The cell culture media was removed by aspiration and cells were incubated for 20 min at 37 °C and 5% CO2 with a basal medium (10 mM HEPES, pH 7.4, 1 mM CaCl2, 1 mM MgCl2, 2 mM KCl) containing 140 mM choline chloride to deplete intracellular Na^2+ ions. […]
(§3) Once the uptake medium was added to the cells, the plates were incubated at 37 °C in 5% CO2 during the required time. […] In each experiment, the transport activities were calculated after subtracting a “blank” value, corresponding to the radioactivity in the appropriate control cells (HEK293T cells that were stably or transiently transfected with one of the parent plasmids pEF6/MycHisA, pEF6HisB, pUB82 or pUB83 with no inserted cDNA) that were analyzed in parallel. […]

hSGLT5 Arg401His = molecular target: T2, hSGLT5 Arg401His (Homo sapiens, UniProt A0PJK1, R401H); assay: 1,5-AG uptake in HEK293T cells overexpressing SGLT5 variant Arg401His; format: cell-based
T2 construct: pUB83-hSGLT5-iso2 as well as the various SGLT5 mutants obtained were used to transduce HEK293T cells; expressed in transfected cells; host or cells: HEK293T, lentiviral transduction (pUB83)
T2 sequence (A0PJK1 1-596 R401H): T1 sequence (A0PJK1 1-596 N96I) with I96N, R401H
Description: as §1, §2, §3

## OC[C@H]1OC[C@H](O)[C@@H](O)[C@@H]1O [1,5-AG, 1,5-anhydroglucitol]
hSGLT5 Asn96Ile
  Vmax: 19.5 ± 3 pmol/min/10^5cells
  reduction of transport efficiency compared to SGLT5: sixfold
hSGLT5 Arg401His
  Vmax: 11.4 ± 0.2 pmol/min/10^5cells
  reduction of transport efficiency compared to SGLT5: twofold
